In publication PMC12421899, “Structural and molecular basis for phosphate recognition by SAR11 bacteria” (mBio, 2025):
Like-named read-outs stand apart in the source and are kept apart here.

Experiments:
CpPstS = test: MST-binding assay of CpPstS; set-up: species or system Candidatus Pelagibacter sp. HTCC7211; conditions: 25°C
Protocol: To analyze the binding affinity of CpPstS to phosphate, the microscale thermophoresis (MST)-binding assay was performed using the Monolith NT.115 instrument (NanoTemper Technologies GmbH). Based on previous studies showing that SAR11_1179 has a high binding affinity to phosphate ([33]), we purified the CpPstS protein under denaturing conditions and refolded it for the MST assay. […]. The high-affinity phosphate-binding affinity of CpPstS is consistent with that previously reported for SAR11_1179 ([33]). To further investigate the molecular mechanism underlying the high-affinity phosphate binding of CpPstS, we subsequently conducted structural biology studies on CpPstS.
Previous studies have shown that PstSCAB specifically transports inorganic phosphate ([10], [41], [42]). […] We therefore speculate that the larger substrate-binding cavity of CpPstS may allow it to bind to both phosphate and larger organic phosphorus compounds. To test this hypothesis, we conducted an MST-binding assay. […] […].
Using primers CppstS-F/CppstS-R, the CppstS gene was PCR amplified from the Candidatus Pelagibacter sp. HTCC7211 strain and inserted into the NdeI/XhoI restriction sites of the pET-22b vector containing a C-terminal His-tag (Table S3). The CpPstS and the selenomethionine (SeMet) derivative of CpPstS were expressed in E. coli BL21(DE3) cells under different culture conditions. For CpPstS protein expression for MST-binding assay, cells were cultured at 37°C in LB medium supplemented with 100 µg/mL ampicillin to an OD600 of 0.8–1.0, and induction was initiated with 0.35 mM isopropyl-β-D-thiogalactopyranoside (IPTG) at 15°C for 16 hours. For SeMet-CpPstS protein expression for crystallization, the SeMet-CpPstS protein was overexpressed in E. coli BL21(DE3) using M9 minimal medium supplemented with selenomethionine, lysine, leucine, valine, isoleucine, threonine, and phenylalanine ([50]). The overexpression was induced with 0.35 mM IPTG at 15°C for 16 hours. The purification of CpPstS for MST-binding assay was under denaturing conditions, cultured E. coli BL21(DE3) cells were collected by centrifugation, resuspended in lysis buffer (40 mM Tris-HCl [pH 8.0], 200 mM NaCl, 5% [vol/vol] glycerol, 2 mM EDTA, and 0.1 mM phenylmethanesulfonyl fluoride), and fractured by pressure crusher (JNBIO, China). The CpPstS protein was first purified by affinity chromatography on a Ni^2+-NTA column (Qiagen, Germany), washed with denaturing Ni binding buffer (8 M urea, 20 mM Tris, 250 mM NaCl, and 20 mM imidazole, pH 8.0) and eluted with denaturing Ni elution buffer (8 M urea, 20 mM Tris, 250 mM NaCl, and 250 mM imidazole, pH 8.0). […]
MST technology was used to quantify the binding affinities of NaH₂PO₄, Mpn, Glycerol-3P, and Glucose-6P to CpPstS. […]

[1] = target: Synechococcus sp. WH8102 PstS1b; conditions: read-out: Kd of PstS1b for phosphate; cited from earlier work
[2] = target: Synechococcus sp. WH8102 PstS1a; conditions: read-out: Kd of PstS1a for phosphate; cited from earlier work
[3] = target: Synechococcus sp. WH8102 PstS2; conditions: read-out: Kd of PstS2 for phosphate; cited from earlier work
[4] = 40 mM MES pH 7.2, 0.005% Tween-20, read-out: Kd of CpPstS for organic phosphorus compounds

Row | Molecule | Kd (CpPstS; [4]) | Kd (CpPstS; refolded CpPstS, 40 mM MES pH 7.2, 0.005% Tween-20, NaH2PO4 titrated from 1.53 nM to 50 µM, listed as NaH2PO4, read-out: Kd (dissociation constant) of CpPstS for phosphate) | Kd (CpPstS; refolded CpPstS, 40 mM MES pH 7.2, 0.005% Tween-20, NaH2PO4 titrated from 1.53 nM to 50 µM, read-out: Kd (dissociation constant) of CpPstS for phosphate) | Kd [1] | Kd [2] | Kd [3]
1 | O=C[C@H](O)[C@@H](O)[C@H](O)[C@H](O)COP(=O)(O)O [glucose-6-phosphate] | 668 ± 253 µM |  |  |  |  | 
2 | O=P(O)(O)OCC(O)CO (stereo not shown) [glycerol-3-phosphate] | 105 ± 44.6 µM |  |  |  |  | 
3 | phosphate |  | 0.112 ± 0.0805 µM | 0.112 µM | 0.44 µM | 3.3 µM | 4.3 µM
